Test results reported in paper PMC4349585 (Journal of medicinal chemistry, 2015).

System: PC-3 cells
Assay: Cofilin phosphorylation Western blot in PC-3 cells stimulated by HGF
Assay type: cell-based
Conditions: 50 nM

Structure (SMILES): Cc1c[nH]c2ncnc(-c3ccc(NC(=O)N(CCO)c4ccccc4)cc3)c12 [Compound 18b, 1-(2-Hydroxyethyl)-3-(4-(5-methyl-7H-pyrrolo[2,3-d]pyrimidin-4-yl)phenyl)-1-phenylurea]
- inhibition of cofilin phosphorylation in PC-3 cells (Western blot): significant inhibition
